In brackets after ≈: the same amount, converted by molar mass.
Test system: Staphylococcus aureus
Assay: Antibacterial activity against Staphylococcus aureus ATCC 6538
Assay type: functional

MIC	Structure (SMILES)
62.5 µg/mL (≈ 132 µM)	COC(=O)C1CC=CCOc2ccc(cc2)C[C@H](NC(C)=O)C(=O)N[C@@H](CCCCN)C(=O)N1 (stereo partly specified)
62.5 µg/mL (≈ 124 µM)	COC(=O)C1CC=CCOc2ccc(cc2)C[C@H](NC(C)=O)C(=O)N[C@@H](CCCNC(=N)N)C(=O)N1 (stereo partly specified)
8 µg/mL	C=CCOc1ccc2ccccc2c1-c1c(OCC(=O)N[C@H](CCCCNC(=N)N)C(=O)N[C@H](CC=C)C(=O)OC)ccc2ccccc12.Cl
8 µg/mL	COC(=O)[C@@H]1C/C=C\COc2ccc3ccccc3c2-c2c(ccc3ccccc23)OCC(=O)N[C@H](CCCCNC(=N)N)C(=O)N1.Cl
4 µg/mL	C=CCOc1ccc2ccccc2c1-c1c(OCC(=O)N[C@H](CCCCN)C(=O)N[C@H](CC=C)C(=O)OC)ccc2ccccc12.Cl
8 µg/mL	C=CCOc1ccc2ccccc2c1-c1c(OCCCC(=O)N[C@H](CCCCNC(=N)N)C(=O)N[C@H](CC=C)C(=O)OC)ccc2ccccc12.Cl
32 µg/mL	C=CCOc1ccc2ccccc2c1-c1c(OCC(=O)N[C@H](CCCCN)C(=O)OC)ccc2ccccc12.Cl
62.5 µg/mL (≈ 121 µM)	COC(=O)C1C/C=C\COc2ccc(cc2)CC(NC(C)=O)C(=O)NC(CCCCNC(=N)N)C(=O)N1 (stereo unspecified)
125 µg/mL (≈ 293 µM)	COC(=O)[C@H]1C/C=C/Cn2cc(c3ccccc32)CC(=O)N[C@H](CCCCN)C(=O)N1
15 µg/mL	COC(=O)[C@@H]1C/C=C\COc2ccc3ccccc3c2-c2c(ccc3ccccc23)OCC(=O)N[C@H](CCCCN)C(=O)N1.Cl
15 µg/mL (≈ 23.7 µM)	COC(=O)[C@@H]1C/C=C/Cc2ccc3c(c2)c2cc(ccc2n3C(=O)OC(C)(C)C)[C@H](NC(C)=O)C(=O)N[C@H](CCCCN)C(=O)N1
7 µg/mL (≈ 10.1 µM)	COC(=O)[C@@H]1C/C=C/Cc2cc3ccccc3c(c2OC)-c2c(OC)c(cc3ccccc23)CC(NC(C)=O)C(=O)N[C@H](CCCCN)C(=O)N1 (stereo partly specified)
15 µg/mL	C=CCOc1ccc2ccccc2c1-c1c(OCCCC(=O)N[C@H](CCCCN)C(=O)N[C@H](CC=C)C(=O)OC)ccc2ccccc12.Cl
125 µg/mL (≈ 275 µM)	COC(=O)[C@H]1C/C=C/Cn2cc(c3ccccc32)CCCC(=O)N[C@H](CCCCN)C(=O)N1
125 µg/mL (≈ 284 µM)	COC(=O)[C@H]1C/C=C/Cn2cc(c3ccccc32)CCC(=O)N[C@H](CCCCN)C(=O)N1

Structure (SMILES)	MIC
CN[C@H](CC(C)C)C(=O)N[C@H]1C(=O)N[C@@H](CC(N)=O)C(=O)N[C@H]2C(=O)N[C@H]3C(=O)N[C@H](C(=O)N[C@H](C(=O)O)c4cc(O)cc(O)c4-c4cc3ccc4O)[C@H](O)c3ccc(c(Cl)c3)Oc3cc2cc(c3O[C@@H]2O[C@H](CO)[C@@H](O)[C@H](O)[C@H]2O[C@H]2C[C@](C)(N)[C@H](O)[C@H](C)O2)Oc2ccc(cc2Cl)[C@H]1O [VANCOMYCIN]	1.95 µg/mL (≈ 1.35 µM)
